Measured values as given in patent US9079843B2, “23-yne-vitamin D3 derivative” (TEIJIN PHARMA LIMITED, priority 2010, dated 2015).

What was measured:
[1] = system: osteoporosis model (oophorectomy) rats; assay: Bone mineral density-enhancing effect in osteoporosis model (oophorectomy) rats; format: in vivo, rat; conditions: OVX rats, 5 times a week for 4 weeks, fourth and fifth lumbar vertebrae
Description: (§1) After 24 hours from the final administration, blood was drawn under ether anesthesia and the rats were put down. Under anesthesia, bone mineral density of the fourth and fifth lumbar vertebrae was measured by using a dual-energy X-ray bone mineral analyzer (QDR-2000; Hologic, Inc.). For comparison, a sham surgery (sham) group (abdominal operation is performed but the ovary is not removed; the test compounds are not administered) and an oophorectomy (OVX) group (subjected to oophorectomy but the test compounds are not administered) were also subjected to measurement of the bone mineral density of lumbar vertebrae at the time of dissection. Further, measurement of calcium concentration in the serum of each group was also performed.

[2] = Serum calcium concentration in osteoporosis model (oophorectomy) rats; conditions: OVX rats; for Serum calcium value: 5 times a week for 4 weeks, 24 hours after final administration
Description: as §1

human VDR = molecular target: T1, human VDR (Homo sapiens, UniProt P11473); assay: VDR transcriptional activity in human osteoblast (HOS cells), osteocalcin promoter luciferase reporter; format: cell-based; conditions: 24 hours incubation
T1 construct: expressed in transfected cells; host or cells: HOS cells (human osteoblast, ATCC)
T1 sequence (P11473 1-427): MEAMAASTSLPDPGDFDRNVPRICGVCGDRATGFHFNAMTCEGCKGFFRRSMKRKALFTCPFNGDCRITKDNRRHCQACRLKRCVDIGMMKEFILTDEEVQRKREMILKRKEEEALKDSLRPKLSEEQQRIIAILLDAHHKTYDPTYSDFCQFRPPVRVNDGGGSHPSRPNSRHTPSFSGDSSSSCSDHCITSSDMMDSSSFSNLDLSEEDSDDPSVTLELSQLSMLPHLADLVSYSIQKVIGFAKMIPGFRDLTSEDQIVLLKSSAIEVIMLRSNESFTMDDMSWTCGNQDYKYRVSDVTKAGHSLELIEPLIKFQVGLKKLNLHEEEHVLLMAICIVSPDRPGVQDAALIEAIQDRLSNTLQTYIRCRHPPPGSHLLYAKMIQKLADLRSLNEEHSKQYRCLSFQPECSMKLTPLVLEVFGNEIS
T1 sequence (P19793 1-462 partner): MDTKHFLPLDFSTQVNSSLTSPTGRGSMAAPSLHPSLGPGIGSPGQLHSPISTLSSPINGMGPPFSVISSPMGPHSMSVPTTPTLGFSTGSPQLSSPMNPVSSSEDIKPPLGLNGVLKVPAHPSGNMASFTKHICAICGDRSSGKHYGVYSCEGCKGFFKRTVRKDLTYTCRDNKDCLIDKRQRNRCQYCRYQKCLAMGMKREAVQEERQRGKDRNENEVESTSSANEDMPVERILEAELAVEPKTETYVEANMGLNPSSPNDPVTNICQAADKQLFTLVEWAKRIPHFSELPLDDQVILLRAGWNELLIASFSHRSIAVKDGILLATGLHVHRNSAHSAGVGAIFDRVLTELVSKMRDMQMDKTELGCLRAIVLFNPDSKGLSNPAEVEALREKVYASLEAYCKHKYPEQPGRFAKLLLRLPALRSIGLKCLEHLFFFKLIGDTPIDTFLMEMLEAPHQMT
From the text: (1) A reporter vector was constructed by inserting the sequence of the promoter region of human ostocalcin gene into the upstream of luciferase gene using a pGL3 vector (Promega Corporation), wherein the promoter region of the human ostocalcin gene was cloned using cDNA acquired from HOS cells (purchased from ATCC) by a method known in the literature (Ozono et al., The Journal of Biological Chemistry, 265, 21881-21888 (1990)). The expression vector was constructed by inserting a DNA sequence, which encodes human VDR and human RXR, into a pcDNA3 vector (Invitrogen Corporation). The HOS cells were incubated in a DMEM medium containing 10% FBS under conditions of 37° C. and 5% CO2, and subcultured every 2 or 3 days.
(2) The cells which had been subcultured were recovered by centrifugation and were suspended in serum- and phenol red-free DMEM medium in a density of 4×10^5 cells/mL. This was seeded on a 96-well plate in an amount of 0.1 mL/well. To this system, various vectors described in (1) were added in an amount of 0.05 mL per well using Lipofectamine 2000 (Invitrogen Corporation). After incubation at 37° C. for 3 hours, 2 μl each of ethanol solutions of the test compounds of various concentrations or ethanol as a control was added to each well. After incubation at 37° C. for 24 hours, the medium was removed, the cells were washed once with PBS(−), and thereafter luciferase activity was measured by using a luminometer (Berthold Technologies GmbH & Co. KG) using Dual-Glo Luciferase Assay Kit (Promega Corporation).

VDR = molecular target: T2, VDR (Homo sapiens, UniProt P11473); assay: Evaluation of VDR affinity (PolarScreen Vitamin D Receptor Competitor Assay, fluorescence polarization)
T2 sequence (P11473 1-427): T1 sequence (P11473 1-427)
Description: VDR was evaluated by using a commercial measurement and evaluation kit, for example, “PolarScreen Vitamin D Receptor Competitor Assay, Red, Cat. No. PV4569” marketed by Invitrogen Corporation, according to the following procedure.
Solutions of the compounds were added to two wells each of a 384-well black plate in 10 μl aliquots. To each well, VDR/Fluoromone VDR Complex included in the kit was added in 10 μl aliquots and allowed to react at room temperature for 2 hours.

Work on `C=C1/C(=C\C=C2/CCC[C@]3(C)[C@@H]([C@H](C)CCCC(C)(C)O)CC[C@@H]23)C[C@@H](O)[C@H](OCCCO)[C@@H]1O` [2α-(3-hydroxypropyl)oxy-1α,25-dihydroxyvitamin D3, reference compound] yielded a Bone mineral density ([1]; dose 10 ng/kg) of 0.2269 ± 0.0161 g/mL, a Bone mineral density ([1]; dose 25 ng/kg) of 0.2473 ± 0.0157 g/mL and a Serum calcium value ([2]; dose 10 ng/kg) of 10.30 ± 0.37 mg/dL. The “increase in the serum calcium value” ([2]; dose 25 ng/kg necessary for bone mineral density equal to or greater than sham group) was at least 1 mg/dL and the Serum calcium value ([2]; dose 25 ng/kg) was 11.20 ± 0.20 mg/dL.
In the case of `C=C1C(=CC=C2CCCC3(C)C2CCC3C(C)CC#CC(C)(C)O)CC(O)C(OCCC(=O)O)C1O` [Compound C-1, (5Z,7E)-(1R,2S,3R,20R)-2-(2-carboxyethoxy)-23-yne-9,10-seco-5,7,10(19)-cholestatriene-1,3,25-triol], the EC50 (human VDR) is reported as at most 0.2 nM, the Bone mineral density ([1]; dose 4 ng/kg) is reported as 0.2223 ± 0.0118 g/mL and the Bone mineral density ([1]; dose 10 ng/kg) is reported as 0.2400 ± 0.0065 g/mL. For the same molecule, the “VDR affinity (in words)” value (VDR) was “very strong VDR affinity”.
With `C=C1C(=CC=C2CCCC3(C)C2CCC3C(C)CC#CC(C)(C)O)CC(O)C(OCCC(=O)OC)C1O` [Compound C-2, (5Z,7E)-(1R,2S,3R,20R)-2-(2-methoxycarbonylethoxy)-23-yne-9,10-seco-5,7,10(19)-cholestatriene-1,3,25-triol] the EC50 (human VDR) was at most 0.2 nM, the Bone mineral density ([1]; dose 6 ng/kg) was 0.2196 ± 0.0177 g/mL and the Bone mineral density ([1]; dose 13 ng/kg) was 0.2308 ± 0.0081 g/mL.
In the case of `C=C1/C(=C\C=C2/CCC[C@]3(C)[C@@H]([C@H](C)CC#CC(C)(C)O)CC[C@@H]23)C[C@@H](O)[C@H](OCCC(=O)OC(C)C)[C@@H]1O` [Compound C-5, (5Z,7E)-(1R,2S,3R,20R)-2-(2-(1-methyl)ethoxycarbonylethoxy)-23-yne-9,10-seco-5,7,10(19)-cholestatriene-1,3,25-triol], the Bone mineral density ([1]; dose 17 ng/kg) is reported as 0.2316 ± 0.0134 g/mL, the Bone mineral density ([1]; dose 50 ng/kg) is reported as 0.2354 ± 0.0126 g/mL and the Serum calcium value ([2]; dose 17 ng/kg) is reported as 9.60 ± 0.15 mg/dL. For the same molecule, the Serum calcium value ([2]; dose 50 ng/kg) was 10.10 ± 0.21 mg/dL.
For `C=C1/C(=C\C=C2/CCC[C@]3(C)[C@@H]([C@H](C)CC#CC(C)(C)O)CC[C@@H]23)C[C@@H](O)[C@H](OCCC(=O)OCOC(=O)C(C)(C)C)[C@@H]1O` [Compound C-7, (5Z,7E)-(1R,2S,3R,20R)-2-((t-butylcarbonyloxy)methoxycarbonylethoxy)-23-yne-9,10-seco-5,7,10(19)-cholestatriene-1,3,25-triol], the Bone mineral density ([1]; dose 6 ng/kg) was 0.2322 ± 0.0092 g/mL, the Bone mineral density ([1]; dose 13 ng/kg) was 0.2548 ± 0.0143 g/mL and the Serum calcium value ([2]; dose 6 ng/kg) was 9.83 ± 0.22 mg/dL. For the same molecule, the Serum calcium value ([2]; dose 13 ng/kg) was 10.07 ± 0.22 mg/dL.
`C=C1C(=CC=C2CCCC3(C)C2CCC3C(C)CC#CC(C)(C)O)CC(O)C(CCCC(=O)O)C1O` [Compound D-1] showed an EC50 (human VDR) of at most 0.02 nM, a Bone mineral density ([1]; dose 6 ng/kg) of 0.2211 ± 0.0175 g/mL and a Bone mineral density ([1]; dose 13 ng/kg) of 0.2360 ± 0.0143 g/mL. For the same molecule, the “VDR affinity (in words)” value (VDR) was “very strong VDR affinity”.
`C=C1C(=CC=C2CCCC3(C)C2CCC3C(C)CC#CC(C)(C)O)CC(O)C(CC(C)C(=O)OC(C)(C)C)C1O` [Compound D-6, (5Z,7E)-(1S,2S,3R,20R)-2-(2-(1,1-dimethyl)ethoxycarbonylpropyl)-23-yne-9,10-seco-5,7,10(19)-cholestatriene-1,3,25-triol] showed a Bone mineral density ([1]; dose 50 ng/kg) of 0.2365 ± 0.0204 g/mL and a Serum calcium value ([2]; dose 50 ng/kg) of 9.76 ± 0.29 mg/dL.
`C=C1/C(=C\C=C2/CCC[C@@]3(C)C2CC[C@@H]3[C@H](C)CC#CC(C)(C)O)C[C@@H](O)[C@H](OCC2(C(=O)O)CC2)[C@@H]1O` (stereo partly drawn) [Compound E-1, (5Z,7E)-(1R,2S,3R,20R)-2-((2-carboxy-2,2-ethano)ethoxy)-23-yne-9,10-seco-5,7,10 (19)-cholestatriene-1,3,25-triol] gave an EC50 (human VDR) of at most 0.2 nM.
Molecule `C=C1C(=CC=C2CCCC3(C)C2CCC3C(C)CC#CC(O)(CC)CC)CC(O)C(OCCC(=O)O)C1O` [Compound F-1, (5Z,7E)-(1R,2S,3R,20R)-2-(2-carboxyethoxy)-26,27-dimethyl-23-yne-9,10-seco-5,7,10(19)-cholestatriene-1,3,25-triol] has an EC50 (human VDR) of at most 0.02 nM and a Bone mineral density ([1]; dose 6 ng/kg) of 0.2366 ± 0.0139 g/mL.
`C=C1C(=CC=C2CCCC3(C)C2CCC3C(C)CC#CC2(O)CCCC2)CC(O)C(OCCC(=O)O)C1O` [Compound F-2, (5Z,7E)-(1R,2S,3R,20R)-2-(2-carboxyethoxy)-26,27-nor-25-cyclopentyl-23-yne-9,10-seco-5,7,10(19)-cholestatriene-1,3,25-triol] gave an EC50 (human VDR) of at most 0.02 nM.
